Experimental data as given in the NIST ThermoML archive (doi:10.1016/j.jct.2008.02.001).

Test: molar heat capacity at constant pressure
Conditions: 101.33 kPa, Crystal, PPMS-Quantum Design

[O-][Si]([O-])([O-])[O-].[Th+4] [thorium silicate]
Conditions | molar heat capacity at constant pressure [J/K/mol]
1.885 K | 0.001439
1.946 K | 0.001553
2.013 K | 0.001656
2.084 K | 0.0018
2.158 K | 0.001932
2.234 K | 0.002074
2.319 K | 0.002253
2.399 K | 0.002416
2.484 K | 0.002584
2.572 K | 0.002792
2.66 K | 0.003006
2.749 K | 0.003244
2.842 K | 0.0035
2.936 K | 0.003794
3.038 K | 0.004121
3.136 K | 0.004482
3.243 K | 0.004896
3.353 K | 0.005336
3.463 K | 0.005793
3.573 K | 0.006259
3.69 K | 0.00688
3.812 K | 0.00739
3.935 K | 0.007954
4.063 K | 0.008647
4.198 K | 0.009528
4.338 K | 0.01046
4.483 K | 0.01148
4.637 K | 0.0127
4.798 K | 0.01391
4.968 K | 0.01533
5 K | 0.01646
5.151 K | 0.01714
5.343 K | 0.01921
5.54 K | 0.02152
5.744 K | 0.02438
5.956 K | 0.02725
6.175 K | 0.03065
6.401 K | 0.03406
6.631 K | 0.03824
6.869 K | 0.04281
7.113 K | 0.04768
7.362 K | 0.05303
7.62 K | 0.05923
7.885 K | 0.06632
8.158 K | 0.07389
8.441 K | 0.08256
8.734 K | 0.09321
9.036 K | 0.1048
9.352 K | 0.1182
9.685 K | 0.1338
10 K | 0.1498
10.02 K | 0.1509
10.37 K | 0.1707
10.73 K | 0.1934
11.1 K | 0.2188
11.48 K | 0.2483
11.88 K | 0.2819
12.29 K | 0.32
12.72 K | 0.3633
13.16 K | 0.4129
13.61 K | 0.4682
14.09 K | 0.5314
14.58 K | 0.603
15.08 K | 0.6838
15.61 K | 0.7739
16.14 K | 0.8747
16.71 K | 0.9903
17.29 K | 1.117
17.89 K | 1.255
18.52 K | 1.411
19.15 K | 1.576
19.81 K | 1.761
20 K | 1.81
20.51 K | 1.965
21.22 K | 2.185
21.97 K | 2.428
22.7 K | 2.683
23.5 K | 2.973
24.27 K | 3.257
25.16 K | 3.599
25.98 K | 3.941
26.91 K | 4.308
27.88 K | 4.727
28.82 K | 5.152
29.81 K | 5.6
30 K | 5.69
30.85 K | 6.085
31.93 K | 6.6
33.08 K | 7.146
34.36 K | 7.779
35.54 K | 8.309
36.76 K | 8.996
38.05 K | 9.736
39.38 K | 10.24
40 K | 10.68
40.71 K | 10.97
42.03 K | 11.71
43.53 K | 12.5
45.03 K | 13.28
46.58 K | 14.12
48.19 K | 15
49.84 K | 15.88
50 K | 16.04
51.54 K | 16.84
53.32 K | 17.83
55.17 K | 18.86
57.08 K | 19.9
59.06 K | 20.99
61.1 K | 22.12
63.21 K | 23.21
65.39 K | 24.39
67.65 K | 25.63
69.99 K | 26.91
72.42 K | 28.19
74.93 K | 29.51
77.52 K | 30.84
80.21 K | 32.24
82.99 K | 33.67
85.77 K | 35.08
88.74 K | 36.63
91.81 K | 38.21
94.98 K | 39.83
98.28 K | 41.48
100 K | 42.28
101.68 K | 43.16
105.2 K | 44.86
108.84 K | 46.57
112.61 K | 48.32
116.51 K | 50.09
120.55 K | 51.87
124.73 K | 53.61
129.04 K | 55.37
133.51 K | 57.22
138.13 K | 59.1
142.91 K | 60.93
147.86 K | 62.82
150 K | 63.64
152.97 K | 64.6
158.25 K | 66.54
163.72 K | 68.4
169.39 K | 70.23
175.25 K | 72.2
181.32 K | 74.15
187.59 K | 75.84
194.08 K | 77.96
200 K | 79.46
200.79 K | 79.76
207.73 K | 81.56
214.93 K | 83.34
222.36 K | 85.17
230.05 K | 86.81
238.01 K | 88.63
246.25 K | 90.44
250 K | 91.07
254.74 K | 92.01
263.54 K | 93.59
272.64 K | 95.02
282.08 K | 96.5
291.84 K | 98.01
298.15 K | 98.68
300 K | 98.88
302.26 K | 99.17
